Test results taken from the NIST ThermoML archive (doi:10.1016/j.fluid.2006.05.032).

Assay: xn = mol fraction of the nth substance listed
Details: Liquid, Vibrating tube method, x1 = 1

CCCO [propan-1-ol] + Cc1ccccc1
mass density [kg/m3]
Details	293.15 K	303.15 K	313.15 K	323.15 K	333.15 K	343.15 K	353.15 K
100 kPa	803.5	795.2	787.6	779.3	770.5	761	752.2
5000 kPa	807.3	799.2	791.9	783.7	775.4	766	757.6
10000 kPa	810.9	802.9	795.9	788	780	770.7	762.7
15000 kPa	814.3	806.7	799.7	792	784.3	775.3	767.6
20000 kPa	817.7	810.1	803.3	795.8	788.4	779.6	772.1
25000 kPa	821	813.6	806.8	799.7	792	783.7	776.3
30000 kPa	824	816.7	810.2	803.2	795.7	787.6	780.4
35000 kPa	827	819.8	813.5	806.6	799.2	791.2	784.1
40000 kPa	829.9	822.9	816.6	809.9	802.6	794.7	787.7
45000 kPa	832.7	825.8	819.7	813	805.9	798.3	791.8
50000 kPa	835.4	828.8	822.7	816.1	809.1	801.6	795.1
55000 kPa	838.1	831.6	825.5	819	812.3	804.6	798.5
60000 kPa	840.7	834.2	828.3	821.8	815.2	807.7	801.7
65000 kPa	843.2	837	831	824.6	818.1	810.6	805
